According to patent US12655139B2, “Isoxazolidines as RIPK1 inhibitors and use thereof” (SANOFI, priority 2020, dated 2026):
Read-outs that look alike come from different tables or passages of the source. One block for each molecule: values may come before it.

Assays:
[1] = monkeys, doses ≥100 mg/kg; cited from earlier work
U937 cells [2] = conditions: Comparator table 5; data from P.A. Harris et al. J Med Chem 2019, 62, 5096; cited from earlier work
U937 cells [3] = assay: Cellular assay in U937 cells on cell death (necroptosis), TNFα/zVAD.fmk; assay type: cell-based; conditions: Homo sapiens, U-937, Comparator table 5; read-out: U937 IC50 (uM) Mean
Method in brief: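 U937 cells with 100 ng/ml TNFα plus 50 μM zVAD.fmk (pre-addition suspension levels) received 10 compound concentrations (10 μM–0.26 nM or 1 μM–0.07 nM) for 18–24 h at 37 °C. Live cells were read by MTS formazan absorbance at 490 nm after 4 h. % inhibition is relative to the maximal value without TNFα/zVAD.fmk.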

[4] = molecular target: T1, hRIPK1 (aa 1-375) fusion protein (Homo sapiens, UniProt Q13546); assay: ADP-Glo kinase assay, RIPK1 autophosphorylation; assay type: biochemical; conditions: Comparator table 5
T1 construct: hRIPK1 (aa 1-375) fusion protein
T1 sequence (Q13546 1-375): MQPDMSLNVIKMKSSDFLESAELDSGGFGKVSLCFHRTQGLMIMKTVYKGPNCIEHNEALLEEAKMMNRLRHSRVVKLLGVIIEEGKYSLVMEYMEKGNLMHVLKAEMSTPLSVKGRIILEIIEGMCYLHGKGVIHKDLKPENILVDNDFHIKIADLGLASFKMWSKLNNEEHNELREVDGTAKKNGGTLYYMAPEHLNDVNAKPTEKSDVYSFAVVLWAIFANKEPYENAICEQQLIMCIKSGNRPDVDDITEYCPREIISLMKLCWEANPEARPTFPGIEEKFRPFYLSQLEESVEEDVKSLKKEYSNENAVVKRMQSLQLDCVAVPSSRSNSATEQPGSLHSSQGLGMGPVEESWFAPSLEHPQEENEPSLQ

[5] = Pharmacokinetic studies in mice, intravenous application with non-serial sampling; assay type: in vivo
Experimental: Intravenous Application with Non-Serial Sampling Compound K
A solution of the respective test articles (3 mg/kg, 5 mL/kg, 0.6 mg/mL) was prepared by dissolving the solids in 7.5% N-Methyl pyrrolidon followed by addition of 60% PEG200 and 32.5% water for injection. Intravenous administration to 24 (3×8, groups per time) non-fasted male C57BL/6 mice (20-25 g) followed immediately after preparation. Terminal blood sampling (with the addition of K2-EDTA) was performed at 0.083, 0.25, 0.5, 1, 2, 4, 8 and 24 h post admin. Plasma was generated by centrifugation and deep-frozen (−20° C.). In addition, brain and liver were removed from all animals. The organs were pooled per time group, homogenized and the homogenate extracted with an acetonitrile-water mixture prior to measurement by HPLC-MS/MS. The brain/plasma ratio was determined by dividing the brain concentration through the respective value for the plasma concentration at the same sampling time.

[6] = Pharmacokinetic studies in mice, oral application; assay type: in vivo; conditions: male, C57BL/6, brain / plasma; mouse, 2 h after oral application of 30 mg/kg; read-out: brain/plasma ratio
Experimental: Pharmacokinetic Studies in Mice
A suspension of the respective test articles (30 mg/kg, 10 ml/kg, 3 mg/ml) was prepared in 0.6% methyl cellulose (MC) by thorough mixing of the fine solid with the freshly made and filtered MC solution and administered to 24 non-fasted male C57BL/6 mice (20-25 g) by gavage. Terminal blood sampling (with the addition of K2-EDTA) was performed at 0.25, 0.5, 1, 2, 4, 6, 8 and 24 h post admin. Plasma was generated by centrifugation and deep-frozen (−20° C.). In addition, after 2 h, brain and liver were removed from the respective 3 mice. Additional plasma was collected from terminal blood. The organs were pooled, homogenized and the homogenate extracted with an acetonitrile-water mixture prior to measurement by HPLC-MS/MS. The brain/plasma ratio was determined at 2 h by dividing the brain concentration at 2 h through the respective value for the plasma concentration at 2 h.
Ex. 004: 21 mice were used in the study, without the 6 h sampling time. The same study design was applied.
A suspension of the respective test articles (30 mg/kg, 10 ml/kg, 3 mg/ml) was prepared in freshly prepared and filtered 0.6% methyl cellulose solution by wet-milling using Retsch MM 301 mixer mill (10 min, room temperature) and administered to 6 non-fasted male C57BL/6 mice (20-25 g) by gavage. Serial sampling of blood (with the addition of K3-EDTA) was performed at 0.25, 0.5, 1, 2, 4, 6, 8 and 24 h post admin. The blood samples were diluted (10 μl blood were added to a mixture of 90 μl 25% acetonitrile in water) and deep-frozen (−20° C.). After 2 h, 3 of the 6 animals were sacrificed and brain and liver taken off. Additional plasma was prepared from terminal blood. The organs were homogenized and the homogenate extracted with an acetonitrile-water mixture prior to measurement by HPLC-MS/MS. The brain/plasma ratio was determined at 2 h by dividing the brain concentration at 2 h through the respective value for the plasma concentration at 2 h.

[7] = Intravenous application to cynomolgus monkeys, side effects and histopathology; assay type: in vivo, cynomolgus monkey; conditions: 1 mg/kg, i.v.

SMILES: CN1C(=O)[C@@H](NC(=O)c2nnc(Cc3ccccc3)[nH]2)COc2ccccc21 [GSK2982772]
central side effects [1]: irregular gait and uncoordinated movement

SMILES: CC(C)(C)C(=O)N1N=CC[C@H]1c1cc(F)cc(F)c1 [H]
IC50 (U937 cells [2]): 0.006 µM

IC50 [4]: 18 nM | Mouse PK brain/blood ratio ([5]; 15 min, i.v. 3 mg/kg): 2.1 (15 min i.v. 3 mg/kg)
SMILES: COc1cc(N2CCC(C(=O)N3OCC[C@H]3c3cc(F)cc(F)c3)CC2)ncn1 [K, reference compound]
IC50 (U937 cells [3]): 0.01 µM

Kp at 15 min ([5]; male, C57BL/6, brain / plasma, iv, mouse, 15 min after i.v. application of 3 mg/kg, read-out: brain/blood ratio): 2.1 | concentration at 15 min ([5]; male, C57BL/6, brain, iv, mouse, 15 min after i.v. application of 3 mg/kg, read-out: brain levels): 1580 ng/mL | Kp at 2 h [6]: 1.6
SMILES: COc1cc(N2CCC(C(=O)N3OCC[C@H]3c3cc(F)cc(F)c3)CC2)ncn1 [comparator compound K, [1-(6-Methoxypyrimidin-4-yl)-4-piperidyl]-[(3S)-3-(3,5-difluorophenyl)isoxazolidin-2-yl]methanone]
histopathological examination [7]: bilateral and symmetrical lesions of brain necrosis | side effects [7]: severe side effects
